Laboratory results published in patent US20240041050A1, “CELL PENETRATING PEPTIDE MEDIATED RNA TRANSDUCTION WITHIN INSECT CELLS” (PIONEER HI-BRED INTERNATIONAL, INC., priority 2020, published 2024).
Ends that are not written are not given here.

What was measured:
DU182A cells = experiment: CPP-mediated delivery of mCherry mRNA cargo into insect cells; assay type: cell-based, Diabrotica undecimpunctata; conditions: complex of 75 μM unlabeled CPP and 10 μg mCherry mRNA, overnight
Excerpt: (§1) Sample preparation and analysis methods were based on those previously reported (Jafari et al. (201 4) “Serum stability and physicochemical characterization of a novel amphipathic peptide C6M 1 for siRNA delivery”, PLoS One, 9(5), e97797; and Gillet et al. (2017) “Investigating Engineered Ribonucleoprotein Particles to Improve Oral RNAi Delivery in Crop Insect Pests”, Frontiers in Physiology, 8(256), doi: 10.3389/fphys.2017.00256). Reagents are described in Examples 1 and 2. Nanocomplex samples were prepared in one of several ways, depending on type of CPP, RNA, or assay. […] Reaction volumes added to cells were 6.38 μL CPP and 6.38 μL mRNA. Final optimal CPP concentration was assessed by amount of fluorescent signal apparent within cells. For insect cell-based assays with CPP-YFP·Cy3-dsRNA or CPP·dsRNA, first a complex formation solution was prepared in molecular biology-grade water containing 90 mg·mL^−1 maltose, 9 mg·mL^−1 mannitol, 392. 16 mM CaCI2, pH 7.0, and vacuum-filtered using Corning™ Disposable Vacuum Filter and Storage System containing a cellulose nitrate filter. Then, increasing amounts of CPP-YFP were added to Cy3-dsRNA, from a molar ratio (CPP-YFP:Cy3-dsRNA) of 1:4 through 8:1 and incubated protected from light at 25° C. for 90 minutes prior to assessment via gel shift and DLS. Reaction volumes added per cell well were comprised of 17 μL reaction solution, 1 μL CPP, 1 μL dsRNA, and 1 μL molecular biology grade water; reaction sizes for larger total volumes were increased in increments of 20 μL and component ratio was held constant to maintain an ionic strength of […]. Final optimal molar ratio selected for cell experiments were determined by increase of the apparent size of the Cy3-dsRNA band on a native agarose gel (FIG. 2A and FIG. 2B), and/or appearance and increase in size of the complex peak detected by a Zetasizer Ultra (Malvern Panalytical, Malvern, United Kingdom) DLS instrument (FIG. 2C). […] Final optimal BAPC1 concentration was assessed by amount of fluorescent signal apparent within cells. […]

[1] = system: western corn rootworm (WCR) larvae; experiment: Oral toxicity screening of CPPs in artificial diet; assay type: in vivo; conditions: first instar WCR larvae; for Affected (%): mortality and stunting
Experimental: Briefly, CPPs were incorporated into standard WCR artificial diet in 96-well microtiter plate format. A 25 μL aliquot of dosing solution was combined with 75 μL molten low-melt WCR diet and shaken on an orbital shaker to mix. Once diet solidified, preconditioned first instar WCR (freshly-hatched insects placed on neutral diet for 24 hours prior to transfer to test diet) were added to the diet plates at a rate of 1 insect·well^−1. Plates were placed inside an incubator (Percival Scientific, Inc., Perry, IA) set to 27° C., 65% RH, and a 24-hour dark cycle. The assay was scored for mortality and stunting affects after 7 and 12 days, without diet refresh, on a 0-3 scale, where 3=mortality, 2=severe stunting, 1=stunting, 0=no affect when compared with untreated larvae. The assay was repeated three times and end-results were tabulated using all three replicates and converted to percentages (Table 5).

DvWL2 cells = experiment: CPP-mediated delivery of mCherry mRNA cargo into insect cells; assay type: cell-based, Diabrotica virgifera virgifera; conditions: complex of 75 μM unlabeled CPP and 10 μg mCherry mRNA, overnight
Excerpt: as §1

Sf9 cells = experiment: as above; assay type: cell-based, Spodoptera frugiperda; conditions: complex of 75 μM unlabeled CPP and 10 μg mCherry mRNA, overnight
Excerpt: as §1

| Compound | fluorescent protein translated from delivered mCherry mRNA (fluorescent signal inside cells) (DU182A cells) | Affected (%) ([1]; 0.195 ppm in artificial diet) | Affected (%) ([1]; 0.391 ppm in artificial diet) | Affected (%) ([1]; 0.781 ppm in artificial diet) | Affected (%) ([1]; 1.56 ppm in artificial diet) | Affected (%) ([1]; 3.13 ppm in artificial diet) | Affected (%) ([1]; 6.25 ppm in artificial diet) | Affected (%) ([1]; 12.5 ppm in artificial diet) | Affected (%) ([1]; 25.0 ppm in artificial diet) | Affected (%) ([1]; 50.0 ppm in artificial diet) | Affected (%) ([1]; 100 ppm in artificial diet) | Affected (%) ([1]; 200 ppm in artificial diet) | fluorescent protein translated from delivered mCherry mRNA (fluorescent signal inside cells) (DvWL2 cells) | fluorescent protein translated from delivered mCherry mRNA (fluorescent signal inside cells) (Sf9 cells) | Mortality (%) ([1]; 0.195 ppm in artificial diet) | Mortality (%) ([1]; 0.391 ppm in artificial diet) | Mortality (%) ([1]; 0.781 ppm in artificial diet) | Mortality (%) ([1]; 1.56 ppm in artificial diet) | Mortality (%) ([1]; 3.13 ppm in artificial diet) | Mortality (%) ([1]; 6.25 ppm in artificial diet) | other results |
| --- | --- | --- | --- | --- | --- | --- | --- | --- | --- | --- | --- | --- | --- | --- | --- | --- | --- | --- | --- | --- | --- |
| CSCC[C@H](NC(=O)[C@@H](NC(=O)[C@H](CO)NC(=O)CNC(=O)[C@H](C)NC(=O)[C@H](C)NC(=O)CNC(=O)[C@H](CC(C)C)NC(=O)[C@H](Cc1ccccc1)NC(=O)CNC(=O)[C@H](CC(C)C)NC(=O)[C@H](Cc1ccccc1)NC(=O)[C@H](CC(C)C)NC(=O)[C@H](C)NC(=O)CN)[C@@H](C)O)C(=O)NCC(=O)N[C@@H](C)C(=O)N[C@@H](Cc1c[nH]c2ccccc12)C(=O)N[C@@H](CO)C(=O)N[C@@H](CCC(N)=O)C(=O)N1CCC[C@H]1C(=O)N[C@@H](CCCCN)C(=O)N[C@@H](CO)C(=O)N[C@@H](CCCCN)C(=O)N[C@@H](CCCNC(=N)N)C(=O)N[C@@H](CCCCN)C(=O)N[C@H](C(=O)O)C(C)C [MPG] | Translation of mRNA into a functional fluorescent protein occurred | 0 | 0 | 0 | 0 | 0 | 0 | 0 | 0 | 0 | 0 | 0 | Translation of mRNA into a functional fluorescent protein occurred | Translation of mRNA into a functional fluorescent protein occurred |  |  |  |  |  |  |  |
| KQINNWFINQRKRHWK [Knotted-1, KQINNWFINQRKRHWK] | Translation of mRNA into a functional fluorescent protein occurred | 0 | 0 | 0 | 0 | 0 | 0 | 0 | 0 | 0 | 0 | 0 | Translation of mRNA into a functional fluorescent protein occurred | Translation of mRNA into a functional fluorescent protein occurred | 0 | 0 | 0 | 0 | 0 | 0 | Mortality (%) ([1]; 12.5 ppm in artificial diet): 0%; Mortality (%) ([1]; 25.0 ppm in artificial diet): 0%; Mortality (%) ([1]; 50.0 ppm in artificial diet): 0%; Mortality (%) ([1]; 100 ppm in artificial diet): 0%; Mortality (%) ([1]; 200 ppm in artificial diet): 0% |
| VRLPPPVRLPPPLVRPPPL [VRLPPPVRLPPPLVRPPPL] |  | 0 | 0 | 0 | 0 | 0 | 0 | 0 | 0 | 0 | 0 | 0 |  |  | 0 | 0 | 0 | 0 | 0 | 0 | Mortality (%) ([1]; 12.5 ppm in artificial diet): 0%; Mortality (%) ([1]; 25.0 ppm in artificial diet): 0%; Mortality (%) ([1]; 50.0 ppm in artificial diet): 0%; Mortality (%) ([1]; 100 ppm in artificial diet): 0%; Mortality (%) ([1]; 200 ppm in artificial diet): 0% |
